Series [1] deals with T1, human A1 adenosine receptor (Homo sapiens, UniProt P30542).
T1 sequence (P30542 1-326): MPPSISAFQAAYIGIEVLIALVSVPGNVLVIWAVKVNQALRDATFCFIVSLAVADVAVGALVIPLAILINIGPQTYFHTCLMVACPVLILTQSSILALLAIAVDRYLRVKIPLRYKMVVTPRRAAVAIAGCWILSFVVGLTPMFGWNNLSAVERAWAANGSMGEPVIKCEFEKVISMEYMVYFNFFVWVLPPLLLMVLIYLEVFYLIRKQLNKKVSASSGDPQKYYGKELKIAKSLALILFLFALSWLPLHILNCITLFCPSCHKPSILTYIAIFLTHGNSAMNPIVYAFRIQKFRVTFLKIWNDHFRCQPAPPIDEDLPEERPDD
Particulars: reported value; cited from earlier work.

In series [2] the target is T2, human adenosine A1 (A1R) (Homo sapiens, UniProt P30542).
T2 construct: yeast alpha-factor (MFalpha1) prepro leader (N, cleaved yes); expressed in transfected cells; host or cells: Saccharomyces cerevisiae (strain CY12660 and related strains carrying plasmid p5095)
T2 sequence (P30542 1-326): T1 sequence (P30542 1-326)
The experiment in a line: Yeast β-Galactosidase reporter gene assay, inhibition of NECA-induced activity, strain CY12660. Particulars: Table 10. It counts as cell-based.

For series [3], the target named is T3, human A2b receptor subtype (Homo sapiens, UniProt P29275).
T3 construct: expressed in transfected cells; host or cells: HEK293
T3 sequence (P29275 1-332): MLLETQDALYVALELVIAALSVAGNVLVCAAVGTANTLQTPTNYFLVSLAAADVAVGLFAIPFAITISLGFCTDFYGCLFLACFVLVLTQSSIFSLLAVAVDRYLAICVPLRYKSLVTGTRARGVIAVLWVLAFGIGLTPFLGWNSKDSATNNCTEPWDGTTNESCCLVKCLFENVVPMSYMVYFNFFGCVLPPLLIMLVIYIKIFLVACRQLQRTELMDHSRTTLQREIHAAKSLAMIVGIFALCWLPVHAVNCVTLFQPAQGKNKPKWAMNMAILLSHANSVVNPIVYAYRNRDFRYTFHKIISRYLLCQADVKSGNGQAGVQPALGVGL
The experiment in a line: Adenosine 2b receptor subtype competition radioligand binding, [3H]DPCPX, HEK293 membranes. The settings on record: for Ki: Table 14, read-out: Binding Data K1 (nM) A2B.

In series [4] the target is T4, human A2a receptor subtype (Homo sapiens, UniProt P29274).
T4 construct: expressed in transfected cells; host or cells: HEK-293 (Cadus clone #5)
The experiment in a line: Adenosine 2a receptor subtype competition radioligand binding, [3H]CGS-21680, HEK293 membranes. Particulars: Table 13, in %; footnote 8: % activity @ 10 μM.

In series [5] the target is T5, human A1 receptor subtype (Homo sapiens, UniProt P30542).
T5 sequence (P30542 1-326): T1 sequence (P30542 1-326)
The settings on record: Table 13, in %; footnote 8: % activity @ 10 μM.

The target in series [6] is T6, human A3 receptor subtype (Homo sapiens, UniProt P0DMS8).
T6 construct: expressed in transfected cells; host or cells: HEK293
T6 sequence (P0DMS8 1-318): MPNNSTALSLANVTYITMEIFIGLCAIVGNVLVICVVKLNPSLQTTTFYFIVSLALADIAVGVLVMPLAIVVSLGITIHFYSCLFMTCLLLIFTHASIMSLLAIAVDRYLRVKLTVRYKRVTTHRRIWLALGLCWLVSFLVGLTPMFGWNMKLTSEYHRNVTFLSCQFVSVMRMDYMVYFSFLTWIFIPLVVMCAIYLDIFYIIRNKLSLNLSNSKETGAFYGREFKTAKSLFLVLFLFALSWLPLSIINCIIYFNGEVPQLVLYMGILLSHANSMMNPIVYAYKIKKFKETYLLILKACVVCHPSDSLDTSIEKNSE
The experiment in a line: Adenosine 3 receptor competition radioligand binding, [125I]AB-MECA, HEK293 membranes. Particulars: Table 14; read-out: Binding Data K1 (nM) A3.

T4 sequence (P29274 whole entry): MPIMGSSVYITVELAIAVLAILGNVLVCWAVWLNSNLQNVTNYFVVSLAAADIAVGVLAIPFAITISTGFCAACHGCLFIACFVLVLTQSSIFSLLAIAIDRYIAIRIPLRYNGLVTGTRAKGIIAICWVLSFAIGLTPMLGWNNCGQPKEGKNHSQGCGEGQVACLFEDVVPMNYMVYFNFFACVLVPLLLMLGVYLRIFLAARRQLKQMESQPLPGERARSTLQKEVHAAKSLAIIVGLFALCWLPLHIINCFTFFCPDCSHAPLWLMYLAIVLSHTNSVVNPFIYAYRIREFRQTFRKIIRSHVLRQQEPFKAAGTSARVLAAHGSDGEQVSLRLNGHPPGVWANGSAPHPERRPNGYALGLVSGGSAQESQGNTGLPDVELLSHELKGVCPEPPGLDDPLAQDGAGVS

For `CC(Cc1ccccc1)Nc1ncnc2c1ncn2[C@@H]1O[C@H](CO)[C@@H](O)[C@H]1O` (single isomer, unassigned; (-)) [R-PIA, (−)-N6-(2-phenylisopropyl)-adenosine], in series [1], the reported affinity entry is reported as “approximately 50 nM”.
In general, melting point refers to the temperature of the solid-liquid transition. Take `CC(=O)NCCNc1nc(-c2ccccc2)nc2[nH]c(COc3ccccc3)cc12` [(25), 4-(2-acetylaminoethyl)amino-6-phenoxymethyl-2-phenyl-7H-pyrrolo[2,3d]pyrimidine]: the melting point lay within 196 to 197 °C.
A word on the IC50: it is the concentration at which inhibition is half-maximal. Regarding `Cc1[nH]c2nc(-c3ccccc3)nc(NCCN)c2c1C` [Compound 1000], the concentration for half-maximal inhibition (IC50) in series [2] is greater than 10000 nM.
In turn, `Cc1[nH]c2nc(-c3ccccc3)nc(NCCNS(C)(=O)=O)c2c1C` [Compound 1007] registered an IC50 in series [2] greater than 10000 nM.
On to `Cc1[nH]c2nc(-c3ccccc3)nc(NCCNC(=O)CCN)c2c1C` [Compound 1009], for which the half-inhibitory concentration (IC50) in series [2] was greater than 10000 nM.
For the compound `Cc1[nH]c2nc(-c3ccccc3)nc(N[C@H]3CC[C@H](O)CC3)c2c1C` [Compound 1305], in series [3] (Table 13, in %, footnote 8: % activity @ 10 μM), the “% activity, A2b binding” value is given as 30%.
`CNC(=O)NCCCNc1nc(-c2ccccc2)nc2[nH]c(C)c(C)c12` [Compound 1310]: the “% activity, A2a binding” value in series [4] amounted to 76%.
Consider `Cc1[nH]c2nc(-c3ccccc3)nc(NCCNC(=O)C3(N)CC3)c2c1C` [Compound 1313], for which the “% activity, A2a binding” value in series [4] was 65%. The “% activity, A1 binding” value in series [5] is on record as 30%.
As for `CC(=O)NCCNc1nc(-c2ccccc2)nc2[nH]c(COc3ccccc3)cc12` [Compound 1400, 4-(2-acetylaminoethyl)amino-6-phenoxymethyl-2-phenyl-7H-pyrrolo[2,3d]pyrimidine], the Ki in series [3] amounted to 10.3 nM.
For the compound `CC(=O)NCCNc1nc(-c2ccccc2)nc2[nH]c(COc3ccc(F)cc3)cc12` [Compound 1401, 4-(2-acetylaminoethyl)amino-6-(4-fluorophenoxy)methyl-2-phenyl-7H-pyrrolo[2,3d]pyrimidine], the Ki in series [3] is 8.8 nM.
Regarding `CC(=O)NCCNc1nc(-c2ccccc2)nc2[nH]c(COc3ccc(Cl)cc3)cc12` [Compound 1402, 4-(2-acetylaminoethyl)amino-6-(4-chlorophenoxy)methyl-2-phenyl-7H-pyrrolo[2,3d]pyrimidine], the Ki in series [6] amounted to 60 nM.
For `OC[C@H]1CCCN1c1nc(-c2ccncc2)nc2[nH]ccc12` [Compound 1601], the melting point is 210 to 220 °C (dec.).
Same read-out and setting: in the case of `NC(=O)[C@H]1CCCN1c1nc(-c2ccncc2)nc2[nH]c(-c3ccccc3)cc12` [Compound 1609, 1-(6-Phenyl-2-pyridin-4-yl-7H-pyrrolo[2,3-d]pyrimidin-4-yl]-pyrrolidine-2-carboxylic acid amide] it was 280 to 316 °C (dec.).

The values above are taken from patent US6664252B2, “4-aminopyrrolo[2,3-d]pyrimidine compounds specific to adenosine A2a receptor and uses thereof” (OSI Pharmaceuticals, Inc., priority 1999, dated 2003).
